The values that follow come from patent US9686971B2, “Methods for testing anti-thrombotic agents” (The Trustees of Columbia University in the City of New York, priority 2006, dated 2017).

For assay [1], the target named is T1, murine αIIbβ3 (Mus musculus, UniProt O54890+Q9QUM0).
T1 sequence (Q9QUM0 32-1033): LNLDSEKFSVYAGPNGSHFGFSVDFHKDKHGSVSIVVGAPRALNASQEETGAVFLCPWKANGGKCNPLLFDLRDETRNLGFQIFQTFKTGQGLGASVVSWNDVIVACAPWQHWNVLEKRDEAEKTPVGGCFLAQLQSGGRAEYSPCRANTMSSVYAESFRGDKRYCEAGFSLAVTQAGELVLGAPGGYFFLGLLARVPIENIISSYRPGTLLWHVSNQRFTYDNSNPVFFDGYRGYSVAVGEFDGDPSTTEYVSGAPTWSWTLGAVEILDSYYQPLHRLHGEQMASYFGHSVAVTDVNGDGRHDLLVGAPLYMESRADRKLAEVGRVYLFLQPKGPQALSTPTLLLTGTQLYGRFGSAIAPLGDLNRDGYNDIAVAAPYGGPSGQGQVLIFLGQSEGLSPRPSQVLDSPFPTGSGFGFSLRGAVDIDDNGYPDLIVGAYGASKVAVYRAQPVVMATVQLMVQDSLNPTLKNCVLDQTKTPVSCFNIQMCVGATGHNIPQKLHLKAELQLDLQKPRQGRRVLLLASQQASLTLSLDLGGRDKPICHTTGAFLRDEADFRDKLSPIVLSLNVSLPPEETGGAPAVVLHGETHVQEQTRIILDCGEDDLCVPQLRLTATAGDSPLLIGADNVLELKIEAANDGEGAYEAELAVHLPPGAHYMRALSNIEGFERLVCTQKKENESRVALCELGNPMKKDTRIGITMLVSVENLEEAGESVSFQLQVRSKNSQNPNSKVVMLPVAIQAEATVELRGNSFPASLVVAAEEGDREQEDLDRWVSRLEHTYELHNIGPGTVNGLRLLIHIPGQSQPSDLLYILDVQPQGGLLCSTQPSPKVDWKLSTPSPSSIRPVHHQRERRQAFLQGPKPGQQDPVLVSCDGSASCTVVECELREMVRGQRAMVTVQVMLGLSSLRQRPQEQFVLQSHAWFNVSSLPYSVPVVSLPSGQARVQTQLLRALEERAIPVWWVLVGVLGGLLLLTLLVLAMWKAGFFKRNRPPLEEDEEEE
T1 sequence (O54890 26-787): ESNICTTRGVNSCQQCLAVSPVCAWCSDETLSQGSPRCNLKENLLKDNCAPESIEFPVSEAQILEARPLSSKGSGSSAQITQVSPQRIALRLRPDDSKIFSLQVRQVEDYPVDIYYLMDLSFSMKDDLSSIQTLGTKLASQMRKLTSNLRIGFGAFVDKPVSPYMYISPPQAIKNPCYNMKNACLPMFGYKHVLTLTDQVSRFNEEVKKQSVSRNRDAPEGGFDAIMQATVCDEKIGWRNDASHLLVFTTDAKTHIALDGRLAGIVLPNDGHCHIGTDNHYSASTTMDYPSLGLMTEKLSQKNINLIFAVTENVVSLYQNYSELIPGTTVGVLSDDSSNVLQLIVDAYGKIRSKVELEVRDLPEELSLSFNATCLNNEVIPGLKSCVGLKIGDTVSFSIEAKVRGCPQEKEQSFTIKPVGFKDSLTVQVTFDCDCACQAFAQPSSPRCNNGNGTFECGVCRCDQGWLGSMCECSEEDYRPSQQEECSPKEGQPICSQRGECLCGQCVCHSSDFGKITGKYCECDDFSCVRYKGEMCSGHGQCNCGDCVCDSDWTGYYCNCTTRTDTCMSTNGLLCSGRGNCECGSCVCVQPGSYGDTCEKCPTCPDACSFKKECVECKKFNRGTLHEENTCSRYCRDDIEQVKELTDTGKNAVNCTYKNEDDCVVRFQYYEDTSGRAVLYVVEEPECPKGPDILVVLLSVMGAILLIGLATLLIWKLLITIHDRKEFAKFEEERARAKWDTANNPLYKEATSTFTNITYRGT
Conditions: cited from earlier work.

In assay [2] the test system is human platelets. The assay is described as follows: Tail bleeding assay, human platelet-induced hemostasis in homozygous VWF^1326R>H mice. In kind it is in vivo, mouse. Conditions: for human platelet-induced hemostatic clot / plug formation (words): PLAVIX 50 mg/kg oral day before and 2 h prior, ReoPro 0.25 mg/kg iv bolus then 0.125 μg/kg/min, 5 min after human platelets. The protocol:
This assay provides an indirect measure of the ability of platelets and VWF to support hemostasis by interacting with the injured vessel wall. It also indirectly determines the function of multiple receptors and ligands on platelets that are required to form a hemostatic plug. […] It is performed by immersing the severed tip (10 mm) of the animal's tail in isotonic saline at 37° C. and monitoring the length of time required for bleeding to cease. Homozygous mutant mice will be infused with an equal volume of either saline or purified human platelets. Platelet specific antibodies or drugs will be administered as described above and their ability to prolong bleeding time evaluated. All experiments will be stopped at 10 min by cauterizing the tail (51).
Tail cuts were performed 5 min after completion of the infusion of platelets. PLAVIX and ReoPro® were obtained from the research pharmacy at CUMC. For studies involving PLAVIX, animals received a 50 mg/kg oral dose of the drug the day before and 2 h prior to the administration of human platelets.

Take “abciximab: Fab fragment of the chimeric human-mouse monoclonal antibody 7E3, which blocks the function of αIIbβ3 on human platelets”: in assay [1], the “binding / function of murine αIIbβ3” value is on record as “does not bind or disrupt the function of murine αIIbβ3”. For the same substance, the “human platelet-induced hemostatic clot / plug formation (words)” value in assay [2] is recorded as “completely disrupted”; in assay [2] (listed as ReoPro), “prevented the formation of a hemostatic plug”. The substance further displayed a mean bleeding time in assay [2] (homozygous VWF^1326R>H mice, given after infusion of human platelets) of 579 s.
